Assay results as given in patent US20260035367A1 (Celgene Corporation, priority 2021, published 2026).
Read-outs that look alike come from different tables or passages of the source.

Assays:
[1] = molecular target: T1, Recombinant human PKC-theta (His-tagged 362-706) (Homo sapiens, UniProt Q04759); test: PKC-theta inhibition assay (HTRF KinEASE kit); format: biochemical; details: ATP 6.5 μM, STK substrate 525 nM
T1 construct: Recombinant human PKC-theta (His-tagged 362-706); His
Method: PKC-theta and PKC-delta biochemical activities were measured using the PKC-theta HTRF KinEASEkit kit, according to manufacturer's instructions (Cisbio, catalogue number 61ST1PEJ). Briefly, the kinase buffer component of the kit was supplemented with 10 mM MgCl2, 1 mM DTT and 0.1% Tween 20. […] The streptavidin_XL665 and STK antibody-cryptate detection reagents were mixed according to the manufacturer's instructions. Test compounds were diluted in DMSO in a series of 10 semi-log step doses; 10 nL of each compound dose were dispensed in 384 well plates. […] The reaction was started by addition of the substrate and ATP and incubated at 25° C. for 30 minutes or 20 minutes for the PKC-theta and PKC-delta assays, respectively. The detection reagents were added, and the plate was incubated in the dark for 2 hours. […] The ratio of acceptor and donor emission signals was calculated for each well. Percent inhibition values were calculated from the HTRF ratios at different doses and fitted to a 4-parameter logistic curve to determine IC50 values (see Table 2).

[2] = molecular target: T2, Recombinant human PKC-delta (His-tagged 345-676) (Homo sapiens, UniProt Q05655); test: PKC-delta inhibition assay (HTRF KinEASE kit); format: biochemical; details: ratio, PKC-theta vs PKC-delta HTRF; for PKC-theta/PKC-delta selectivity (binned): binned A to G
T2 construct: PKC-delta (His-tagged 345-676); His
T2 sequence (Q05655 345-676): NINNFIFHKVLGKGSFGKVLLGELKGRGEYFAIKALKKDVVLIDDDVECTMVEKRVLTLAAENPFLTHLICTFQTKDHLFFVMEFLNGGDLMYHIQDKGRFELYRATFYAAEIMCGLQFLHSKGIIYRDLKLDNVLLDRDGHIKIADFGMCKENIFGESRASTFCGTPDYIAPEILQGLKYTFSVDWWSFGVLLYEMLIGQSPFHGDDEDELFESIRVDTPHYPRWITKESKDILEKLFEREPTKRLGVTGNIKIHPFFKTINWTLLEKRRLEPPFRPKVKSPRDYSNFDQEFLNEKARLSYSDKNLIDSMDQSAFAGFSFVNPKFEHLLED

[3] = system: IL-2 secretion by human effector memory T cells (TEM); test: Effector memory T cells IL-2 release assay (CD3/CD28 stimulation, HTRF IL-2 detection); format: cell-based; details: 24 h; for IC50: Homo sapiens, T-cell
Method: Test compound-mediated inhibition of NFκB signalling in T cells was assessed by quantification of the IL-2 secretion by human effector memory T cells (TEM) upon treatment and stimulation. Human TEM cells were isolated from buffy coats of healthy donors obtained from the French blood bank.
Finally, 10 doses of test compound, originally prepared in DMSO by serial semi-log step dilution, were also added to cells in triplicate wells. Final DMSO concentration in wells was 0.1% in a total volume of 100 μL complete medium. Plates were incubated for 24 h at 37° C. in 5% CO2 atmosphere. After incubation, cell suspensions were centrifuged at 400×g and culture supernatants were recovered and stored at −80° C. […] IL-2 levels were determined in cell supernatants using an HTRF human IL-2 detection kit (Cisbio, cat #62HIL02PEH).

[4] = binned A to H, read-out: PKC-theta HTRF pIC50 (binned) (converted)
[5] = read-out: PKC-theta HTRF pIC50 (converted)
[6] = binned A to G, read-out: PKC-theta IL2 pIC50 (binned) (converted)
[7] = read-out: PKC-theta IL2 pIC50 (converted)

T1 sequence (Q04759 362-706): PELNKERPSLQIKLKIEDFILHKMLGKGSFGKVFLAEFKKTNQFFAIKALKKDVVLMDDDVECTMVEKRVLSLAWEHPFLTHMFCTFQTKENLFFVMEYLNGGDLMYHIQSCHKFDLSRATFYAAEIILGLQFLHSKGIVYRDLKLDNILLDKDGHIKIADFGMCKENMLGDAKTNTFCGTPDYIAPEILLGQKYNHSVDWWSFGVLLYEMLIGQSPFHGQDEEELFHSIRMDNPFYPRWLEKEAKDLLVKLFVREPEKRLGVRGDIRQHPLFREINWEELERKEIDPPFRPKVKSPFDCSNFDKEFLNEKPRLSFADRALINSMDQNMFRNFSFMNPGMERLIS

Compound	IC50 [1, 4] [nM]	IC50 [1, 5] [nM]	PKC-theta/PKC-delta selectivity [2]	PKC-theta/PKC-delta selectivity (binned) [2]	IC50 [3, 6] [nM]	IC50 [3, 7] [nM]	PKC-theta IL2 pIC50 (binned) ([3]; binned A to G)	PKC-theta IL2 pIC50 [3]
CC[C@H]1CN(c2cc(C(F)(F)F)cc(-c3ccnc4c3[C@](C)(O)C(=O)N4)n2)CCN1 (single isomer, unassigned) [Example 90]	0.316 to 1	0.794	17	D (a ratio of between 10 and 20)	10 to 31.6	15.8		
C[C@H]1CNCCN1c1cc(F)cc(-c2ccnc3c2C(C)(C)C(=O)N3)c1 [Example 30]	31.6 to 100	31.6	2	F (a ratio of between 1 and 5)	316 to 1000	794		
CC[C@]1(C)C(=O)Nc2nccc(-c3cc(C(F)(F)F)cc(N4CCN[C@@H](C)C4)n3)c21 (single isomer, unassigned) [Example 153]	1 to 3.16	3.16	13	D (a ratio of between 10 and 20)	10 to 31.6	31.6		
C[C@]1(O)C(=O)Nc2nccc(-c3cc(F)cc(N4CCNCC4)c3)c21 (single isomer, unassigned) [Example 62]	3.16 to 10	6.31	5	E (a ratio of between 5 and 10)	100 to 316	126		
CC1(C)C(=O)Nc2nccc(-c3cc(C#N)cc(N4CCNCC4)c3)c21 [Example 53]	100 to 316	251	3	F (a ratio of between 1 and 5)	> 1000	1580		
CC1(C)C(=O)Nc2nccc(-c3nc(N4CCNCC4)c(F)cc3Cl)c21 [Example 207]	100 to 316	251	5	F (a ratio of between 1 and 5)	> 1000	2000		
CC1(C)C(=O)Nc2nccc(-c3cccc(N(CC4COC4)C4CCCNC4)c3)c21 (stereo not drawn) [Example 26]	100 to 316	158	2	F (a ratio of between 1 and 5)	> 1000	2510		
C[C@H]1CN(c2cc(C(F)(F)F)cc(-c3ccnc4c3C(C)(C)C(=O)N4)n2)CCCN1 [Example 185]	3.16 to 10	5.01	27	C (a ratio of between 20 and 30)	31.6 to 100	39.8		
C[C@H]1CNCCN(c2cc(C(F)(F)F)cc(-c3ccnc4c3C(C)(C)C(=O)N4)n2)C1 [Example 181]	10 to 31.6	12.6	12	D (a ratio of between 10 and 20)	100 to 316	158		
O=c1[nH]c2nccc(-c3cccc(N4CCNCC4c4cccnc4)c3)c2[nH]1 (stereo not drawn) [Example 12]	> 1000	5010	1	G (a ratio of 0 to 1)	> 1000	10000		
C[C@H]1CN(c2ccc(Cl)c(-c3ccnc4c3[C@](C)(O)C(=O)N4)c2)CCN1 [Example 107]	31.6 to 100	63.1	7	E (a ratio of between 5 and 10)	316 to 1000	501		
C[C@@H]1CNCCCN1c1cc(C(F)(F)F)cc(-c2ccnc3c2C(C)(C)C(=O)N3)n1 [Example 190]	3.16 to 10	3.16	32	B (a ratio of between 30 and 50)	31.6 to 100	79.4		
CC[C@H]1CN(c2ccc(Cl)c(-c3ccnc4c3[C@](C)(O)C(=O)N4)n2)CCN1 (single isomer, unassigned) [Example 128]	10 to 31.6	25.1	5	F (a ratio of between 1 and 5)	100 to 316	316		
O=c1[nH]c2nccc(-c3cc(C(F)(F)F)cc(N4CCNCC4)n3)c2[nH]1 [Example 68]	31.6 to 100	31.6	11	D (a ratio of between 10 and 20)	316 to 1000	501		
CC(C)[C@H]1CN(c2cccc(-c3ccnc4c3C(C)(C)C(=O)N4)c2)CCN1 [Example 50]	31.6 to 100	79.4	2	F (a ratio of between 1 and 5)	> 1000	1000		
CO[C@]1(C)C(=O)Nc2nccc(-c3cc(Cl)cc(N4CCNC[C@H]4C)n3)c21 (single isomer, unassigned) [Example 172]	3.16 to 10	10	13	D (a ratio of between 10 and 20)	100 to 316	100		
O=c1[nH]c2nccc(-c3cccc(N4CCNCC4)c3)c2o1 [Example 6]	> 1000	1000	2	F (a ratio of between 1 and 5)	> 1000	10000		
C[C@H]1NCCN(c2cc(C(F)(F)F)cc(-c3ccnc4c3C(C)(C)C(=O)N4)n2)[C@H]1C [Example 127]	1 to 3.16	1.26	15	D (a ratio of between 10 and 20)		25.1	C (a measured pIC50 of between 7.5 and 8.0)	
C[C@@H]1CNC[C@H](C)N1c1cc(C(F)(F)F)cc(-c2ccnc3c2C(C)(C)C(=O)N3)n1 [Example 179]	3.16 to 10	6.31	20	D (a ratio of between 10 and 20)	100 to 316	200		
C[C@@]1(O)C(=O)Nc2nccc(-c3cc(F)cc(N4CCNCC4)c3)c21 (single isomer, unassigned) [Example 63]	316 to 1000	1000		G (a ratio of 0 to 1)	> 1000	10000		
C[C@H]1CN(c2cc(C(F)(F)F)cc(-c3ccnc4c3[C@](C)(O)C(=O)N4)n2)CCN1 (single isomer, unassigned) [Example 95]	1 to 3.16	2	15	D (a ratio of between 10 and 20)	31.6 to 100	31.6		
CO[C@]1(C)C(=O)Nc2nccc(-c3cc(C(F)(F)F)cc(N4CCNC[C@H]4C)n3)c21 (single isomer, unassigned) [Example 176]	10 to 31.6	12.6	20	C (a ratio of between 20 and 30)			E (a measured pIC50 of between 6.5 and 7.0)	6.9
CC[C@H]1CN(c2cc(Cl)cc(-c3ccnc4c3C(O)(CC)C(=O)N4)n2)CCN1 (stereo partly drawn) [Example 143]	3.16 to 10	3.98	8	E (a ratio of between 5 and 10)	31.6 to 100	31.6		
O=c1[nH]c2nccc(-c3ccnc(N4CCNCC4)c3)c2[nH]1 [Example 13]	316 to 1000	398			> 1000	10000		
C[C@H]1CN(c2cc(Cl)cc(-c3ccnc4c3C(C)(O)C(=O)N4)n2)CCN1 (stereo partly drawn) [Example 74]			12	D (a ratio of between 10 and 20)				
CC[C@@]1(C)C(=O)Nc2nccc(-c3cc(Cl)cc(N4CCN[C@@H](C)C4)n3)c21 (single isomer, unassigned) [Example 170]	3.16 to 10	6.31			100 to 316	100		
